Measured values: PubChem BioAssay AID1259407 (Chemical Carcinogenesis Research Information System (CCRIS), 2018)
The source made the active and inactive calls. The rule behind the calls is not given here.

System: CCRIS mutagenicity, Ames/micronucleus/aberration tests
Assay: CCRIS mutagenicity studies

Measured: mutagenic call

C=C(C)C(=O)OCCOCCOC(=O)C(=C)C
inactive: Test System: AMES SALMONELLA TYPHIMURIUM, Strain/Indicator: TA98, Metabolic Activation: NONE, Method: STANDARD PLATE inactive; negative | Test System: AMES SALMONELLA TYPHIMURIUM, Strain/Indicator: TA98, Metabolic Activation: RAT, LIVER, S-9, AROCLOR 1254, Method: STANDARD PLATE inactive; negative | Test System: AMES SALMONELLA TYPHIMURIUM, Strain/Indicator: TA98, Metabolic Activation: RAT, LIVER, S-9, SODIUM PHENOBARBITAL, Method: STANDARD PLATE inactive; negative | Test System: AMES SALMONELLA TYPHIMURIUM, Strain/Indicator: TA100, Metabolic Activation: NONE, Method: STANDARD PLATE inactive; negative | Test System: AMES SALMONELLA TYPHIMURIUM, Strain/Indicator: TA100, Metabolic Activation: RAT, LIVER, S-9, AROCLOR 1254, Method: STANDARD PLATE inactive; negative | Test System: AMES SALMONELLA TYPHIMURIUM, Strain/Indicator: TA100, Metabolic Activation: RAT, LIVER, S-9, SODIUM PHENOBARBITAL, Method: STANDARD PLATE inactive; negative | Test System: AMES SALMONELLA TYPHIMURIUM, Strain/Indicator: TA1535, Metabolic Activation: NONE, Method: STANDARD PLATE inactive; negative | Test System: AMES SALMONELLA TYPHIMURIUM, Strain/Indicator: TA1535, Metabolic Activation: RAT, LIVER, S-9, AROCLOR 1254, Method: STANDARD PLATE inactive; negative | Test System: AMES SALMONELLA TYPHIMURIUM, Strain/Indicator: TA1535, Metabolic Activation: RAT, LIVER, S-9, SODIUM PHENOBARBITAL, Method: STANDARD PLATE inactive; negative | Test System: AMES SALMONELLA TYPHIMURIUM, Strain/Indicator: TA1537, Metabolic Activation: NONE, Method: STANDARD PLATE inactive; negative | Test System: AMES SALMONELLA TYPHIMURIUM, Strain/Indicator: TA1537, Metabolic Activation: RAT, LIVER, S-9, AROCLOR 1254, Method: STANDARD PLATE inactive; negative | Test System: AMES SALMONELLA TYPHIMURIUM, Strain/Indicator: TA1537, Metabolic Activation: RAT, LIVER, S-9, SODIUM PHENOBARBITAL, Method: STANDARD PLATE inactive; negative | Test System: AMES SALMONELLA TYPHIMURIUM, Strain/Indicator: TA1538, Metabolic Activation: NONE, Method: STANDARD PLATE inactive; negative | Test System: AMES SALMONELLA TYPHIMURIUM, Strain/Indicator: TA1538, Metabolic Activation: RAT, LIVER, S-9, AROCLOR 1254, Method: STANDARD PLATE inactive; negative | Test System: AMES SALMONELLA TYPHIMURIUM, Strain/Indicator: TA1538, Metabolic Activation: RAT, LIVER, S-9, SODIUM PHENOBARBITAL, Method: STANDARD PLATE inactive; negative

CCC(=O)OCc1ccc([N+](=O)[O-])cc1
active: Test System: AMES SALMONELLA TYPHIMURIUM, Strain/Indicator: TA100, Metabolic Activation: NONE, Method: PREINCUBATION active; positive | Test System: AMES SALMONELLA TYPHIMURIUM, Strain/Indicator: TA100, Metabolic Activation: RAT, LIVER, S-9, AROCLOR 1254, Method: PREINCUBATION active; positive
inactive: Test System: AMES SALMONELLA TYPHIMURIUM, Strain/Indicator: TA98, Metabolic Activation: NONE, Method: PREINCUBATION inactive; negative | Test System: AMES SALMONELLA TYPHIMURIUM, Strain/Indicator: TA100(NR), Metabolic Activation: NONE, Method: PREINCUBATION inactive; negative

CCCc1cc(=O)oc2c3c(c4c(c12)OC(C)(C)C=C4)O[C@H](C)[C@@H](C)[C@H]3O
inactive: Test System: Mouse lymphoma, Strain/Indicator: L5178Y (tk+/tk-), Metabolic Activation: None, Method: Suspension/plate inactive; negative | Test System: Mouse lymphoma, Strain/Indicator: L5178Y (tk+/tk-), Metabolic Activation: Rat, Liver, S-9, Aroclor 1254, Method: Suspension/plate inactive; negative

O=C1NC(=S)NC(=O)C1C(=O)Nc1ccccc1
inactive: Test System: AMES SALMONELLA TYPHIMURIUM, Strain/Indicator: TA102, Metabolic Activation: NONE, Method: STANDARD PLATE inactive; negative | Test System: CHINESE HAMSTER V-79, Strain/Indicator: V-79 (HPRT)/6-THIOGUANINE, Metabolic Activation: NONE inactive; negative
active: Test System: MOUSE LYMPHOMA, Strain/Indicator: L5178Y (HPRT)/6-THIOGUANINE, Metabolic Activation: NONE, Method: FLUCTUATION TEST active; positive | Test System: MOUSE LYMPHOMA, Strain/Indicator: L5178Y (TK+/TK-), Metabolic Activation: NONE, Method: FLUCTUATION TEST active; positive
